The text below walks through data of PMC12595484, “Optimizing multifunctional fluorescent ligands for intracellular labeling” (Proceedings of the National Academy of Sciences of the …, 2025).

For series [1], the system named is OMP25–msGFP–HaloTag fusion protein in HEK293T cells. Kind of series: Pulse–chase HaloTag labeling efficiency, SDS–PAGE/in-gel fluorescence. In kind it is cell-based. The following applies: 2 h, mean ± SEM. The method, then: PBS, 2% (v/v) SDS, 1% (v/v) Triton x-100, 10 mM EDTA, and protease inhibitors (2 mM PMSF, aprotinin, leupeptin, and pepstatin A). Samples were then incubated at 50 °C for 3–4 min after the addition of Laemmli sample buffer (SB; Bio-Rad, 1610747) with β-mercaptoethanol (Bio-Rad, 1610710). For protein detection, 10–20 µL of the sample was subjected to SDS-PAGE, using 10% Tris-Glycine gels (TGX) (Bio-Rad, 5671034) with Tris-Glycine buffer (Bio-Rad, 1610732). […]
Quantification of HaloTag labeling efficiency using in-gel fluorescence. HEK293T cells were cultured, incubated and transfected with pF(UG) hSyn HaloTag-TEV-4×GS-msGFP-mito using lipofectamine LTX reagent as described above. To examine saturation of HaloTag, we screened for fluorescence plateau using 1 μM of JF479-HaloTag ligand,4 JF549-HaloTag ligand (2HTL) and […]
(2HTL) and JF608-HaloTag ligand (3HTL) reached a fluorescence plateau, and they were chosen as saturating counter stains or “chase” dyes for examining the labeling efficiency of biotin-JF-HaloTag ligands (13HTL–16HTL). Next, we developed an in-gel assay to independently quantitate labeling efficiencies of 13HTL–16HTL. We used JF549-HaloTag ligand (2HTL) as chase for evaluating biotin-JF608-HaloTag ligand (14HTL), biotin-JF646-HaloTag ligand (15HTL), and biotin-JF635-HaloTag ligand (16HTL). We used JF608-HaloTag ligand (3HTL) as chase for evaluating biotin-JF549-HaloTag ligand (13HTL). Each experiment consisted of testing the biotin variants 13HTL–16HTL at 100 nM and 1 μM with an incubation time of 2 h and a chase labeling incubation of 1 μM for 0.5 h. The 0.5 h chase labeling period was included with the 2 h total incubation. Each experiment consisted of the following conditions: untransfected cells; (A) transduced, but no dye; (B) non-biotinylated variant of primary label at 1 μM for 0.5 h; (C) the nonbiotinylated version of the chase JF dye at 1 μM for 0.5 h; (D) 100 nM of the nonbiotinylated version of the primary label for 2 h; (E) 100 nM of the biotinylated version of primary label for 2 h; (F) 1 μM of the nonbiotinylated version of the primary label for 2 h; (G) 1 μM of the biotinylated version of primary label for 2 h; and (H) 1 μM of the non-biotinylated version of the chase JF dye at 1 μM for 2 h. This last condition H was the same as condition C but with a longer incubation (2 h vs. 0.5 h) to allow independent verification of the chase saturation using 0.5 h incubation. Samples D–G were incubated with a nonbiotinylated chase dye at 1 μM for 0.5 h. Cells were washed and protein lysates were harvested using Bio-Rad SDS-PAGE products as described above. Specifically, cells were lysed using protein lysis buffer as described above, and adding XT Sample Buffer (Bio-Rad, 1610791) and XT Reducing Agent (Bio-Rad, 1610792). Samples were heated at 72 °C for 5 min. Samples were then loaded onto a 4–12% Criterion XT Bis-Tris gel (Bio-Rad, 3450124) and ran at 150 V for approximately 1 h. Gels were then imaged on a Chemidoc MP imager (Bio-Rad) using orange, red, and far-red filters. Bands representing HaloTag ligand were quantified by densitometry using […]
labeling efficiency calculations, bands representing saturating chase dye fluorescence (e.g., JF549) were compared to saturating primary dye fluorescence allowing estimation of the amount of […]
Where F is the fraction of HaloTag protein labeled, Ce is the experimental chase dye fluorescence signal after incubation with pulse biotin-JF-HaloTag ligand, and Cs is the saturating chase dye fluorescence without incubation with a pulse ligand.
Neuro2a cell culture, labeling, lattice light sheet microscopy (LLSM), and confocal microscopy. Neuro2a cells (ATCC, CCL-131) were cultured in Eagle's minimum essential medium (MEM, phenol red-free; Life Technologies) supplemented with 10% (v/v) fetal bovine serum (FBS), and maintained at 37 °C in a humidified 5% (v/v) CO2 environment. Cells were transiently transfected using nucleofection (Lonza) with plasmids constitutively expressing

Series [2] relates to sfGFP–BRD4 in Neuro2a cells expressing coilin–HaloTag. Kind of series: BRD4 translocation to coilin–HaloTag, LLSM. The series is classed as cell-based. The following applies: 25 μM (S)-JQ1 with 20 nM 19HTL, coilin–HaloTag, confocal. The method, then:
The ability of JQ1 ligands to enter living cells and recruit BRD4 to defined genomic regions was evaluated using lattice light sheet fluorescence microscopy (LLSM). Neuro2a cells were transiently transfected with plasmids encoding three fusion proteins: i) HaloTag protein fused to coilin, […]; ii) superfolder GFP–BRD4; and iii) histone H2B–mCherry as a nuclear marker. The Cajal body component coilin localizes in distinct puncta in the nucleus ([62]) compared to the diffuse euchromatic distribution of BRD4. […]
Neuro2a cell culture, labeling, lattice light sheet microscopy (LLSM), and confocal microscopy. […]
Full 3D volumes at multiple stage positions were collected at 2 minute intervals for 90 minutes total. […] The recruitment of histone H3.3 was assessed by imaging after 24 h incubation with 19HTL. […]
LLSM imaging processing. Raw image data volumes were deskewed and rotated, then empirically deconvolved using a Richardson-Lucy maximum likelihood algorithm using experimentally measured PSFs for each color channel for 30 iterations. […] These segmentation masks were then used to isolate each nucleus for further quantitative analyses. […] The amount of BRD4 signal was then assessed in- versus outside HaloTag labeled domains throughout the 90-min time-lapse acquisition. […]

On the set-up of series [3]: method as in PMID 28869757, PMID 25599551. The note with it: 10 mM HEPES, pH 7.3; ref 27 and 50; cited from earlier work.
The conditions of series [4]: 1:1 (v/v) dioxane–water, cited from earlier work.
The nature of series [5]: Determination of logD7.4 (miniaturized shake flask, octanol–PBS). The series is classed as physicochemical. The following applies: pH 7.4. The protocol: Detailed descriptions of the materials and methods are provided in the supporting information. Multifunctional rhodamine–HaloTag ligands (13HTL–16HTL and 18HTL–20HTL) were synthesized using palladium-catalyzed cross-coupling reactions to install 3-carboxyazetidine moieties onto rhodamine scaffolds, followed by amide bond formation with biotin–PEG2–NH2, (S)-JQ1–PEG2–NH2, or (R)-JQ1–PEG2–NH2. Spectroscopic properties (λabs, λem, ε, and Φf) were determined in 10 mM HEPES, pH 7.3. The lactone–zwitterion equilibrium constants (KL–Z) were measured in 1:1 (v/v) dioxane–water mixtures. Octanol–water distribution coefficients (logD7.4) were determined by miniaturized shake-flask partitioning experiments using PBS (pH 7.4) and 1-octanol. Cell culture experiments employed HEK293T, U2OS, and Neuro2a cells transfected with HaloTag fusion constructs and labeled with ligands (100 nM to 1 μM, 0.5 to 2 h at 37 °C), followed by fluorescence microscopy using confocal or lattice light-sheet microscopy. Affinity purification studies utilized streptavidin magnetic beads to capture biotin-labeled HaloTag conjugates, with analysis by SDS-PAGE and in-gel fluorescence detection. […]
Reported values are averages of at least two measurements.
Determination of logD7.4. The log of distribution coefficients at pH 7.4 was determined in octanol–phosphate-buffered saline (PBS) using a miniaturized shake flask setup described previously.6, 7 Briefly, 150 mL each of octanol and PBS pH 7.4 were stirred vigorously for 12–16 h. The layers were allowed to stand for at least 24 h for phase separation. The separated layers were collected and served as PBS saturated with octanol (PBS*) and octanol saturated with PBS (octanol*). Stock solutions (1 mM or 5 mM) of ligands were prepared in DMSO and diluted in PBS* to obtain 1 μM or 10 μM (3–5 mL) of the standard (std). This standard was used to prepare appropriate dilutions using octanol*, in triplicate, in 2-mL glass vials. The leftover standard was used to determine the standard concentration (Cstd). The vials were vortexed for 1 min and shaken horizontally at 700 rpm for 2 h. The vials were then shaken upright at 150 rpm for 2 h to allow the phases to separate. The octanol* layer was pipetted out, and the PBS* layer was used for further analyses. The concentrations of ligands in the standard and PBS* (CPBS*) were determined via fluorescence measurements of 200 μL of PBS* or std in 96-well plates on the Cytation 5 Multimode Plate Reader (BioTek). For Si-rhodamine containing ligands, 2–20 μL of […]
trifluoroacetic acid was added to each well of the 96-well plate prior to the fluorescence measurements. Reported values are averages of at least two measurements. The logD7.4 was obtained as described previously using equation 2: logD = log *’(" × r − 1. +)*+∗ / (2) […]
where Cstd is the standard concentration in PBS, CPBS* is the concentration in PBS after partitioning, r is the dilution factor of the standard solution, VPBS* is the volume of PBS used in the partitioning, and Voctanol* is the volume of octanol used in the partitioning.
Plasmid construction for mitochondria imaging and affinity purification. HaloTag, amplified from the pHTC HaloTag CMV-neo Vector (Promega; G7711) and monomeric-superfolder green fluorescent protein (msGFP; lab stock), was fused to the mitochondrial targeting signal from OMP25,8 interspacing flexible GS(GSS)4 linkers between each domain by PCR Splicing by Overlap Extension (SOE). This construct was subcloned into hSynapsin promoter bearing a copy of FUGW.9 FUGW was a gift from David Baltimore (Addgene plasmid # 14883; RRID:
Addgene_14883).10 This construct was designated as pF(UG) hSyn HaloTag-TEV-4×GS-msGFP- […]
HEK293T cell culture. HEK293T cells (ATCC) were passaged before 80% confluency by trypsinization (Corning; 25-053-CI) and trituration. The cell suspension was then plated on glass coverslips (Warner instruments; 64-0734, CS-18R17) coated with poly-D-lysine (Thermofisher; […]

Values joined by “and” are separate entries in the source; they are usually repeats but may differ in a detail not shown here. Identical values can stand only once. Like-named read-outs stand apart in the source and are kept apart here.

For the compound `O=C(CCCC[C@@H]1SC[C@@H]2NC(=O)N[C@@H]21)NCCOCCOCCCCCCCl` [17HTL, biotin–HaloTag ligand, reference compound], the figures for the labeling efficiency in series [1] (100 nM pulse) and in series [1] (1 µM pulse) were 32.0 ± 9.3% and 92.1 ± 0.4%, respectively.

Consider `Cc1sc2c(c1C)C(c1ccc(Cl)cc1)=N[C@@H](CC(=O)OC(C)(C)C)c1nnc(C)n1-2` [JQ1, (S)-JQ1, reference compound], for which the “effect of excess free JQ1 on BRD4 recruitment by 19HTL” value in series [2] is recorded as “inhibited BRD4 recruitment”.

As usually defined, the logD is lipophilicity at a set pH, counting ionised and neutral species. A lower logD goes with lower lipophilicity. Take `C[Si]1(C)c2cc(N3CCC3)ccc2C2(OC(=O)c3ccccc32)c2ccc(N3CCC3)cc21` [compound 5, Janelia Fluor 646]: in series [3], the Φf was 0.54, the ε is recorded as 5,000 M^−1cm^−1, the λabs is reported as 646 nm and the λem is reported as 664 nm. In addition, the “KL–Z” value in series [4] (parent dyes, ref 27 and 50) is on record as 0.0014. Also, the log distribution coefficient (logD) in series [5] amounted to 3.98.

As for `C[Si]1(C)c2cc(N3CC(F)C3)ccc2C2(OC(=O)c3ccccc32)c2ccc(N3CC(F)C3)cc21` [compound 6, JF635], in series [3], the Φf is 0.66, the ε is listed as ~ 400 M^−1cm^−1, the λabs is recorded as 635 nm and the λem is reported as 652 nm. In series [4], the “KL–Z” value is “≈ 0.0001 and 0.0001”. Also, the logD in series [5] was determined as 4.1.
